Laboratory results published in article PMC10813753 (Biology, 2024).
Structures can show the parent of a compound that is named as a salt. Where two headings read alike, the source gives them in different places.

Legend:
[1] = tested on: Tel22 (DNA, G4) AGGGTTAGGGTTAGGGTTAGGG; assay: circular dichroism titration; conditions: 10 mM K+, 90 mM Li+; 10 mM Li-cacodylate pH 7.3, 25 °C; 4 μM DNA, DNA/ligand 1:1 to 1:5
[2] = tested on: F21T (DNA, G4) GGGTTAGGGTTAGGGTTAGGG; assay: FRET melting (renaturing curve); conditions: 10 mM K+, 90 mM Li+; 10 mM Li-cacodylate pH 7.3; 0.2 μM DNA; 10 μM compound
[3] = tested on: F10T (DNA, hairpin, Sp18 (hexaethylene glycol type spacer) between 10 and 11) TATAGCTATATAGCTATA; assay: FRET melting (renaturing curve); conditions: 100 mM LiCl; 10 mM Li-cacodylate; 0.2 μM DNA; 10 μM compound
[4] = tested on: Tel22 (DNA, G4) AGGGTTAGGGTTAGGGTTAGGG; assay: equilibrium dialysis (non-competition); conditions: 100 mM KCl; 10 mM potassium phosphate pH 7.2, 22 °C; 2 μM ligand, 75 μM tetrads; apparent; per tetrad; per base
[5] = tested on: ds17 (DNA, duplex) GGGTTACTACGAACTGG/CCAGTTCGTAGTAACCC; assay: equilibrium dialysis (non-competition); conditions: 100 mM KCl, 10 mM potassium phosphate pH 7.2, 22 °C, 2 μM ligand, 75 μM base pairs, apparent, per base pair
[6] = tested on: PC-3 cells (prostate tumor); assay: MTT viability assay PC-3; format: cell-based, human; conditions: MTT, 72 h
Procedure: (§1) A panel of five tumor cell lines and two normal cell lines was used to preliminarily test the cytotoxicity of compounds 1–4, and the experiments were conducted as previously reported. All human cell lines were acquired from American Type Culture Collection (ATCC): tumor PC-3 and DU145 (prostate), HeLa (cervix), MCF7 (breast) and HT29 (colorectal) and healthy HFF-1 (fibroblast) and RWPE-1 (prostate). The cell catalogue reference and culture media used in the experiments were CRL-1435^TM, RPMI (PC-3), HTB-81™, RPMI (DU145), CCL-2^TM, DMEM (HeLa), HTB-22^TM, DMEM (MCF-7), HTB-38^TM, modified McCoy’s 5a medium, Catalogue No. 30-2007 (HT29), SCRC-1041^TM, DMEM (HFF-1) and CRL-11609^TM, Keratinocyte-SFM (RWPE-1). Culture media were purchased from Merck: RPMI-1640, DMEM + 10% FBS (Fetal Bovine Serum) + […] (penicillin/streptomycin/amphotericin B). Media and supplements for RWPE-1 were from ThermoFisher (17005075, Madrid, Spain). MCF7 cells were additionally supplemented with insulin (0.001 mg/mL in 500 mL media). Cells were kept at 37 °C (5% CO2), and culture media were renewed three times per week. When the cells reached 80–100% confluence, they were trypsinized and centrifuged, and the concentration was adjusted to each experiment. Cells were seeded at a density of ~10,000 cells/well into 24-well plates. The cells were treated with ligands 1–4 or the cytotoxic agents PhenQE8, PhenDC3 or cisplatin at different concentrations (10 nM–100 μM). Compound solutions were freshly prepared using the appropriate culture medium. Triplicate experiments were run. For MTT viability assays, after 72 h incubation, 50 μL of MTT (5 mg/mL) was added, and an additional incubation of 4 h was allowed. The medium in each well was then replaced by DMSO, and the absorbance was measured at 570 nm using an ELISA plate reader. Absorbances were normalized using negative controls (untreated cells, in triplicate, with a maximum of 0.9% DMSO content). Dose–response curves were obtained by plotting the percentage of viable cells versus logarithmic compound concentration. IC50 values were determined using Kaleidagragh^TM (3.52) software by adjusting the data to Equation 1/(1 + 10^(m2*(log(m1) − x))); m1 = 0.000003; m2 = 1.

MCF-7 cells (breast) = assay: MTT viability assay MCF-7; format: cell-based, human
Procedure: as §1

HeLa cells (cervix) = assay: MTT viability assay HeLa; format: cell-based, human; conditions: 72 h
Procedure: as §1

[7] = tested on: DU145 cells (prostate tumor); assay: MTT viability assay DU145; format: cell-based, human
Procedure: as §1

[8] = tested on: RWPE-1 cells (healthy prostate); assay: MTT viability assay RWPE-1; format: cell-based, human
Procedure: as §1

[9] = tested on: HFF-1 cells (healthy fibroblasts); assay: MTT viability assay HFF-1; format: cell-based, human
Procedure: as §1

Calf thymus CT DNA = conditions: cited from earlier work
[10] = tested on: G4 Tel22 telomeric quadruplex DNA; design: method as in PMID 33451070; conditions: previously reported ref 29; cited from earlier work
HT29 cells (colorectal) = assay: MTT viability assay HT29; format: cell-based, human
Procedure: as §1, with “Dose–response curves were obtained by plotting the percentage of viable cells versus logarithmic compound concentration.” left out

[11] = tested on: telomeric G4 sequence F21T; assay: FRET-based DNA melting assay, telomeric G4 F21T; format: binding, human; conditions: 10 μM compound, 0.2 μM F21T, renaturing process, K+ buffer
Procedure: FRET DNA melting assays were conducted following standard reported procedures. Briefly, the employed oligonucleotides F21T (5′-FAM—(GGG TTA)3GGG—TAMRA-3′) and F10T (5′-FAM—TAT AGC TA TA/Sp18/TA GCT ATA—TAMRA-3′) were dissolved in buffer at 0.25 μM concentration and annealed by heating at 90 °C for 5 min, and then immediately cooling to 0 °C, in the case of F21T, or slowly to rt (F10T) during a period of 3 hours. The solutions were allowed to stand at 4 °C at least overnight.
Tested compounds 1–4 were dissolved in water with up to a maximum 10% DMSO (50 μM stock solution). Each stock solution was then gradually diluted to reach the final concentrations in the assay from 0 to 10 μM and a fixed 0.2 μM concentration of target sequences F21T or F10T. The buffer used for G4 sequence F21T was 10 mM KCl, 90 mM LiCl and 10 mM Li-cacodylate, pH 7.3. The buffer employed for F10T was 100 mM LiCl and 10 mM Li-cacodylate.
The melting process program consisted of an incubation step at 24 °C for 5 min and then a temperature ramp (1 °C/min rate) with fluorescence recordings at every degree up to 95 °C. Subsequently, the microplate with the samples (50 μL) was incubated for 5 min at 96 °C and then gradually cooled by using a temperature ramp of −1 °C/min, with fluorescence measurements at every degree down to 25 °C. The melting and refolding (or renaturing) curves were registered based on the change in emission of the FAM (6-carboxyfluorescein) fluorophore, excited at 492 nm and emitting at 516 nm. Melting temperature values (Tm) were determined from replicate experiments using normalized curves and considering mid-transition T1/2 temperatures.

[12] = tested on: PC-3, DU145, HeLa, MCF-7, HT29, HFF-1 and RWPE-1 cells; assay: MTT viability assay, whole cell panel; format: cell-based, human; conditions: 72 h, up to 100 μM
Procedure: A panel of five tumor cell lines and two normal cell lines was used to preliminarily test the cytotoxicity of compounds 1–4, and the experiments were conducted as previously reported. All human cell lines were acquired from American Type Culture Collection (ATCC): tumor PC-3 and DU145 (prostate), HeLa (cervix), MCF7 (breast) and HT29 (colorectal) and healthy HFF-1 (fibroblast) and RWPE-1 (prostate). The cell catalogue reference and culture media used in the experiments were CRL-1435^TM, RPMI (PC-3), HTB-81™, RPMI (DU145), CCL-2^TM, DMEM (HeLa), HTB-22^TM, DMEM (MCF-7), HTB-38^TM, modified McCoy’s 5a medium, Catalogue No. 30-2007 (HT29), SCRC-1041^TM, DMEM (HFF-1) and CRL-11609^TM, Keratinocyte-SFM (RWPE-1). Culture media were purchased from Merck: RPMI-1640, DMEM + 10% FBS (Fetal Bovine Serum) + […] (penicillin/streptomycin/amphotericin B). Media and supplements for RWPE-1 were from ThermoFisher (17005075, Madrid, Spain). […] The medium in each well was then replaced by DMSO, and the absorbance was measured at 570 nm using an ELISA plate reader. Absorbances were normalized using negative controls (untreated cells, in triplicate, with a maximum of 0.9% DMSO content). […] IC50 values were determined using Kaleidagragh^TM (3.52) software by adjusting the data to Equation 1/(1 + 10^(m2*(log(m1) − x))); m1 = 0.000003; m2 = 1.

NC(=S)N/N=C/c1ccc2ccc3ccc(/C=N/NC(N)=S)nc3c2n1 (as salt: phosphate) [compound 2, 2,2′-(1,10-Phenanthroline-2,9-diyl)-bis(methylene)-bis(hydrazine-1-carbothioamide) Hexafluorophosphate Salt]
melting point: > 240 °C (dec.)

NC(=S)N/N=C/c1ccc2ccc3ccc(/C=N/NC(N)=S)nc3c2n1 [1]
binding [1]: yes | ΔTm [2]: ~ 12 °C | ΔTm [3]: ~ 0 °C | Kapp [4]: 1.1 ± 0.1 × 10^5 M^-1 | Kapp [5]: 0.06 ± 0.01 × 10^5 M^-1

NC(=S)N/N=C/c1ccc2ccc3ccc(/C=N/NC(N)=S)nc3c2n1 [2]
ΔTm [2]: ~ 15 °C

NC(=S)N/N=C/c1ccc2ccc3ccc(/C=N/NC(N)=S)nc3c2n1 [3]
ΔTm [2]: ~ 10 °C

C[n+]1cc(NC(=O)c2ccc3ccc4ccc(C(=O)Nc5cc6ccccc6[n+](C)c5)nc4c3n2)cc2ccccc21 [PhenDC3]
IC50 ([6]; Homo sapiens, PC-3, 72 h): 55.5 ± 3.1 µM | IC50 (MCF-7 cells (breast); Homo sapiens, MCF7, 72 h): 2.4 ± 0.8 µM | IC50 (HeLa cells (cervix); Homo sapiens, HeLa): > 100 µM | IC50 ([7]; Homo sapiens, DU-145, 72 h): 7.3 ± 1 µM | IC50 ([8]; Homo sapiens, RWPE-1, 72 h): 8.2 ± 1.1 µM | IC50 ([9]; Homo sapiens, HFF-1, 72 h): 32.2 ± 4.2 µM

N=C(N)N/N=C/c1ccc2ccc3ccc(/C=N/NC(=N)N)nc3c2n1 [PhenQE8]
IC50 ([6]; Homo sapiens, PC-3, 72 h): 5.6 ± 0.3 µM | viscosity slope, (η/ηo)^1/3 versus r (Calf thymus CT DNA; determined in previous studies ref 29): ca. 0.24 | IC50 (MCF-7 cells (breast); Homo sapiens, MCF7, 72 h): 44.9 ± 9.2 µM | IC50 (HeLa cells (cervix); Homo sapiens, HeLa): 16.2 ± 1.6 µM | IC50 ([7]; Homo sapiens, DU-145, 72 h): 22.7 ± 1.1 µM | binding selectivity quadruplex/dsDNA [10]: 90 fold | IC50 ([8]; Homo sapiens, RWPE-1, 72 h): 38.8 ± 0.5 µM | IC50 ([9]; Homo sapiens, HFF-1, 72 h): 170 ± 23.3 µM

N.N.[Cl][Pt][Cl] [cisplatin]
IC50 [6]: 12.8 ± 0.9 µM | IC50 (HT29 cells (colorectal); 72 h): 86.6 ± 7 µM | IC50 (MCF-7 cells (breast); 72 h): 96.5 ± 6.7 µM | IC50 (HeLa cells (cervix)): 18 ± 1.9 µM | IC50 ([7]; 72 h): 8.4 ± 1.5 µM | IC50 ([8]; 72 h): 16.4 ± 1.4 µM | IC50 ([9]; 72 h): 36.6 ± 4.4 µM

C(=N\Nc1nc(-c2ccccc2)cs1)/c1ccc2ccc3ccc(/C=N/Nc4nc(-c5ccccc5)cs4)nc3c2n1 [compound 4, 2,9-bis((E)-(2-(4-Phenylthiazol-2-yl)hydrazineylidene)methyl)-1,10-phenanthroline]
IC50 ([6]; Homo sapiens, PC-3, 72 h): > 100 µM | ΔTm [2]: ~ 3 °C | IC50 (HT29 cells (colorectal); Homo sapiens, HT-29, 72 h): > 100 µM | IC50 (MCF-7 cells (breast); Homo sapiens, MCF7, 72 h): > 100 µM | IC50 (HeLa cells (cervix); Homo sapiens, HeLa): > 100 µM | ΔTm of telomeric G4 F21T [11]: ~ 3 °C | ΔTm [3]: ~ 0 °C | IC50 ([7]; Homo sapiens, DU-145, 72 h): > 100 µM | melting point: > 250 °C (dec.) | IC50 ([8]; Homo sapiens, RWPE-1, 72 h): > 100 µM | cytotoxicity in all cell lines tested [12]: non-cytotoxic | IC50 ([9]; Homo sapiens, HFF-1, 72 h): > 100 µM

CC[n+]1c(-c2ccccc2)c2cc(N)ccc2c2ccc(N)cc21 [ethidium bromide]
viscosity slope, (η/ηo)^1/3 versus r (Calf thymus CT DNA; classical monointercalating agent ref 50, 51): ~ 1.0
